Reference: patent US10300155B2, “Alpha-synuclein ligands” (Washington University, priority 2015, dated 2019)
Several values for one entry are separate records, joined by “and”; a condition that tells them apart may be missing. Equal entries are not always repeated.

What was measured:
[1] = molecular target: T1, α-synuclein fibrils (Homo sapiens, UniProt P37840); test: ThT saturation binding to α-synuclein fibrils (Example 116); conditions: saturation curve
T1 construct: made in house; host or cells: E. coli BL21(DE3)RIL
Description: The mixture was incubated at room temperature for 1 hour on the shaking plate. The reaction plate was scanned by the excitation wavelength range from 430 to 465 nm. The maximum excitation wavelength (λex) was determined according to the fluorescent intensity-excitation wavelength curve. At (λex), the emission wavelength was scanned to get maximum emission wavelength (λem).
The mixture was incubated at room temperature for 1 hour on the shaking plate. The fluorescent intensity for each cell was measured by the fluorescence reader at λex and λem.

[2] = molecular target: T1, α-synuclein fibrils; test: Radioligand binding assay with α-synuclein fibrils (Table 8)
[3] = molecular target: T2, Aβ1-42 fibrils (Homo sapiens, UniProt P05067); test: Radioligand binding assay with Aβ1-42 fibrils (Table 8)
T2 construct: Synthetic Aβ42 peptide (1 mg) (Bachem, Torrance, Calif.); purchased Bachem, Torrance, Calif; host or cells: synthetic peptide
Description: Synthetic Aβ42 peptide (1 mg) (Bachem, Torrance, Calif.) was first dissolved in 50 μl DMSO. An additional 925 μl of mQ-H2O was added. Finally, 25 μl 1M Tris-HCl pH 7.6 was added to bring the final peptide concentration to 222 μM (1 mg/ml) [16]. The dissolved peptide was incubated for 30 h at 37° C. with shaking at 1000 rpm in an Eppendorf Thermomixer. Fibril formation was confirmed by ThioT fluorescence. To determine the concentration of fibrils, the fibril reaction mix was centrifuged at 15,000×g for 15 min to separate fibrils from monomer. The concentration of Aβ monomer in the supernatant was determined in a BCA protein assay using a BSA standard curve that contained DMSO at a percentage equivalent to the samples. […]
A fixed concentration (1 μM) of α-syn, Aβ, or tau fibrils were incubated for 2 h at 37° C. with increasing concentrations of ThioT in 30 mM Tris-HCl pH 7.4, 0.1% BSA in a reaction volume of 150 μl. Nonspecific binding was determined in a duplicate set of binding reactions containing the same concentration of ThioT with no fibrils. Fluorescence was determined in a Biotek plate reader using a 440/30 excitation filter and a 485/20 emission filter. […] The dissociation constant (Kd) and the maximal number of binding sites (Bmax) values were determined by fitting the data to the equation Y=Bmax*X/(X+Kd) by nonlinear regression using Graphpad Prism software (version 4.0).

[4] = molecular target: T1, α-synuclein fibrils; test: Thioflavin T competition assay (Example 130, Table 9), α-synuclein fibrils; assay type: binding
Description: Freshly transformed BL21 colonies were inoculated into 2 L baffled flasks containing 250 ml sterilized TB (1.2% bactotryptone, 2.4% yeast extract, 0.4% glycerol, 0.17 M KH2PO4, 0.72 M K2HPO4) with 50 μg/ml ampicillin, and incubated overnight at 37° C. with shaking.
(§1) Competition assays used a fixed concentration of α-syn, Aβ, or tau fibrils (1 μM), consisting of 3 μM, 50 nM and 4 μM of ThioflavinT respectively. […] To optimize the determination of selectivity, assays for all three fibril species were set up in parallel using a common set of intermediate compound dilutions for each analog. Reactions were incubated at room temperature for 1.5 h before quantifying bound ligand as described above for the saturation binding assay. […] All data points were performed in triplicate. Nonspecific fluorescence was measured in parallel reactions containing ThioT plus each concentration of competitor but no fibrils, and these measurements were subtracted from the reactions with fibrils to yield fibril-specific fluorescence. Data were analyzed using Graphpad. Prism software (version 4.0) to obtain EC50 values by fitting the data to the equation Y=bottom+(top-bottom)/(1+10^(x−log EC50)).

[5] = molecular target: PD Tissue; test: Radioligand saturation binding, PD postmortem brain tissue; parameters: species or system human; conditions: brain tissue homogenate
Description: (§2) Brain tissue samples were selected from an autopsy case series of patients evaluated for parkinsonism by movement disorders specialists at the Movement Disorders Center of Washington University School of Medicine in St. Louis. The clinical diagnosis of idiopathic PD was based on modified United Kingdom Parkinson's Disease Society Brain Bank clinical diagnostic criteria with clear clinical response to levodopa [Hughes, A. J., et al, “Accuracy of clinical diagnosis of idiopathic Parkinson's disease: a clinico-pathological study of 100 cases,” 1992, J. Neurol. Neurosurg. Psychiatry, 55:181-184]. Dementia was determined by a movement disorders specialist based on clinical assessment of cognitive dysfunction sufficiently severe to impair activities of daily living, with further evaluation of cognitive impairment using the AD8 and Mini-Mental Status Exam (MMSE) [Galvin, J. E., et al., “The AD8: a brief informant interview to detect dementia,” 2005, Neurology 65:559-564; Folstein, M. F., et al., ““Mini-mental state”. A practical method for grading the cognitive state of patients for the clinician,” 1975, J. Psychiatr Res, 12:189-198]. LB stage was assessed at autopsy using a PD staging scale (range: 0, 1-6) [Braak, H., et al., “Stages in the development of Parkinson's disease-related pathology,” 2004, Cell Tissue Res., 318:121-134]. PD cases were selected based on a clinical diagnosis of PD plus dementia, Braak LB stage 5-6 pathology, and the absence of significant Aβ or tau pathology determined by immunohistochemistry. Control cases were selected based on the absence of α-synuclein, Aβ and tau pathology. Samples were used from both male and female subjects.
(§3) Grey matter was isolated from frozen postmortem frontal cortex tissue by dissection with a scalpel. To prepare insoluble fractions, dissected tissue was sequentially homogenized in four buffers (3 ml/g wet weight of tissue) with glass Dounce tissue grinders (Kimble): 1) High salt (HS) buffer: 50 mM Tris-HCl pH 7.5, 750 mM NaCl, 5 mM EDTA; 2) HS buffer with 1% Triton X-100; 3) HS buffer with 1% Triton X-100 and 1 M sucrose; and 4) phosphate buffered saline (PBS). Homogenates were centrifuged at 100,000×g after each homogenization step and the pellet was resuspended and homogenized in the next buffer in the sequence. For comparison in initial binding studies, crude tissue homogenates were also prepared by homogenization of tissue in only PBS. […]
(§4) Saturation binding assays combine binding substrate and varying radioligand concentrations, with or without the addition of a high concentration (50-100 times the estimated Kd) of a competitor compound to determine nonspecific binding. […] Specific binding is determined by subtracting nonspecific binding from total binding. […]

[6] = molecular target: AD Tissue; test: Radioligand saturation binding, AD postmortem brain tissue; parameters: species or system human; conditions: brain tissue homogenate
[7] = molecular target: Control Tissue; test: Radioligand saturation binding, control postmortem brain tissue; parameters: species or system human; conditions: brain tissue homogenate
Description: as §2, §3, §4

[8] = molecular target: T3, tau fibrils (Homo sapiens, UniProt P10636); test: Radioligand binding assay with tau fibrils (Table 8); parameters: made in house; host or cells: E. coli BL21(DE3)RIL
Target sequence in this assay (P10636 560-692): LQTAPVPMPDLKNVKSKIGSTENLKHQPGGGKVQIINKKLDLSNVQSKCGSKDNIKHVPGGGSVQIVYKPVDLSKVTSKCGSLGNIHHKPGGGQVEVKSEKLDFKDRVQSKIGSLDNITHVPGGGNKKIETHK

[9] = molecular target: T3, tau fibrils; test: Thioflavin T competition assay (Example 130, Table 9), tau fibrils; assay type: binding; parameters: made in house; host or cells: E. coli BL21(DE3)RIL
Description: Recombinant tau protein was produced in E. coli.
as §1
Target sequence in this assay (P10636 560-692): as above

[10] = molecular target: T4, Aβ fibrils (Homo sapiens, UniProt P05067); test: Thioflavin T competition assay (Example 130, Table 9), Aβ fibrils; assay type: binding; parameters: Synthetic Aβ42 peptide (1 mg) (Bachem, Torrance, Calif.); purchased Bachem, Torrance, Calif; host or cells: synthetic peptide
Description: An additional 925 μl of mQ-H2O was added. […] Fibril formation was confirmed by ThioT fluorescence.
as §1

[11] = molecular target: T1, α-synuclein fibrils; test: ThT competitive assay for α-synuclein fibrils (Table 1); assay type: binding; conditions: for EC50: α-synuclein fibrils
How it was run: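 Competition against ThT binding to recombinant (E. coli) human α-synuclein fibrils, pelleted from a 72 hour fibril reaction and quantified by BCA. Mixtures incubated 60 minutes at room temperature with shaking; ThT fluorescence read. Ki derived from EC50 via Cheng-Prusoff using the ThT saturation Kd.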

[12] = molecular target: T4, Aβ fibrils; test: ThT competitive assay for Aβ fibrils (Table 2); assay type: binding; parameters: made in house; host or cells: E. coli; conditions: for EC50: Aβ fibrils
Description: […] recombinant protein was produced in E. coli. Additional preparation was performed in a similar fashion to Example 115. […] The inhibitor that binds with highest affinity to Aβ fibrils has the lowest dissociation constant (Ki).

[13] = molecular target: T3, tau fibrils; test: ThT competitive assay for tau fibrils (Table 3); assay type: binding; parameters: made in house; host or cells: E. coli; conditions: for EC50: tau fibrils
Description: Tau fibril recombinant protein was produced in E. coli. Additional preparation was performed in a similar fashion to Example 115.
Target sequence in this assay (P10636 560-692 limits assumed): as the sequence (P10636 560-692) above

[14] = average, read-out: Ki (nM) α-syn (avg)
[15] = average, read-out: EC50 (nM) EC50 (avg)
[16] = average, read-out: EC50(nM) EC50 (avg)
[17] = individual determinations, read-out: EC50(nM) EC50
[18] = average, read-out: Ki (nM) Aβ (avg)
[19] = individual determinations, read-out: Ki (nM) Aβ
[20] = average, read-out: Ki (nM) Tau (avg)
[21] = individual determinations, read-out: Ki (nM) Tau
[22] = average, read-out: EC50m (nM) EC50 (avg)
[23] = individual determinations, read-out: EC50m (nM) EC50
[24] = individual determinations, read-out: Ki (nM) α-syn
[25] = individual determinations, read-out: EC50 (nM) EC50

T4 sequence (P05067 672-713 limits assumed): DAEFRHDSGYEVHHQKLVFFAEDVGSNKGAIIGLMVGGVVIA
T2 sequence (P05067 672-713 limits assumed): as above

Compound: Cc1ccc2c(c1)sc(-c1ccc(N(C)C)cc1)[n+]2C [ThT, Thioflavin T]
- Bmax for ThioT binding to fibrils [1]: 5672 afu

Compound: COc1cc(/C=C/c2ccc3cc(OCCF)ccc3n2)ccn1 [[^18F]TZ-36-148]
- Kd [2]: 90 nM
- Kd [3]: 98 nM
- EC50 ([4]; average, read-out: α-synuclein EC50 (avg)): 46.8 nM
- Ki ([4]; average, read-out: α-synuclein Ki (avg)): 18 nM
- EC50 ([4]; individual determinations, read-out: α-synuclein EC50): 44.5 nM and 49 nM
- Ki ([4]; individual determinations, read-out: α-synuclein Ki): 17 nM and 19 nM
- Kd [5]: 167 nM
- Kd [6]: 83 nM
- Kd [7]: 477 nM
- Kd [8]: 51 nM
- EC50 ([9]; average, read-out: Tau fibrils EC50 (avg)): 278 nM
- Ki ([9]; individual determinations): 124 nM and 102 nM
- EC50 ([9]; individual determinations, read-out: Tau fibrils EC50): 305 nM and 251 nM
- EC50 ([10]; average, read-out: Aβ-fibrils EC50 (avg)): 448 nM
- Ki ([10]; average, read-out: Aβ-fibrils Ki (avg)): 168 nM
- EC50 ([10]; individual determinations, read-out: Aβ-fibrils EC50): 435 nM and 462 nM
- Ki ([10]; individual determinations, read-out: Aβ-fibrils Ki): 163 nM and 173 nM

Compound: COc1cc(/C=C/c2ccc3cc(OCC[18F])ccc3n2)ccn1 [[^18F]TZ-36-148]
- α-synuclein Bmax (pmol/nmol) [2]: 29 pmol/nmol
- Aβ1-42 fibrils Bmax (pmol/nmol) [3]: 28 pmol/nmol
- PD Tissue Bmax (pmol/nmol) [5]: 1510 pmol/nmol
- AD Tissue Bmax (pmol/nmol) [6]: 12945 pmol/nmol
- Control Tissue Bmax (pmol/nmol) [7]: 604 pmol/nmol
- Tau fibrils Bmax (pmol/nmol) [8]: 58 pmol/nmol

Compound: COc1ccc(/C=C/c2ccc(-c3cnc(C)s3)s2)cc1 [TZ-34-43]
- Ki [11, 14]: 134 nM
- EC50 [11, 15]: 351 nM
- EC50 [12, 16]: 854 nM
- EC50 [12, 17]: 854 nM
- Ki [12, 18]: 320 nM
- Ki [12, 19]: 320 nM
- Ki [13, 20]: 512 nM
- Ki [13, 21]: 512 nM
- EC50 [13, 22]: 1260 nM
- EC50 [13, 23]: 1260 nM

Compound: COc1ccc(/C=C/c2cccs2)cc1 [TZ-34-26]
- Ki [11, 14]: 176 nM
- Ki [11, 24]: 51.3 nM and 283 nM and 126 nM and 291 nM and 82 nM and 221 nM
- EC50 [11, 15]: 460 nM
- EC50 [11, 25]: 134 nM and 739 nM and 329 nM and 762 nM and 214 nM and 580 nM
- EC50 [12, 16]: 6660 nM
- EC50 [12, 17]: 6660 nM
- Ki [12, 18]: 2500 nM
- Ki [12, 19]: 2500 nM
- Ki [13, 20]: 1370 nM
- Ki [13, 21]: 1370 nM
- EC50 [13, 22]: 3350 nM
- EC50 [13, 23]: 3350 nM

Compound: COc1ccc2nc(/C=C/c3ccnc(OC)c3)ccc2c1 [TZ-36-28-2T]
- Ki [11, 14]: 51.8 nM
- Ki [11, 24]: 37 nM and 40 nM and 87 nM and 66 nM and 29 nM
- EC50 [11, 15]: 136 nM
- EC50 [11, 25]: 98 nM and 105 nM and 226 nM and 174 nM and 76 nM
- Kd [2]: 30 nM
- Kd [6]: 13 nM
- EC50 [12, 16]: 715 nM
- EC50 [12, 17]: 715 nM
- Ki [12, 18]: 268 nM
- Ki [12, 19]: 268 nM
- Ki [13, 20]: 34 nM
- EC50 [13, 22]: 82 nM
- EC50 [13, 23]: 82 nM

Compound: COc1ccc2nc(/C=C/c3ccnc(OC)c3)ccc2c1 [[^11C]TZ-36-28-2T]
- α-synuclein Bmax (pmol/nmol) [2]: 51 pmol/nmol
- Kd [5]: 55 nM
- PD Tissue Bmax (pmol/nmol) [5]: 367 pmol/nmol
- AD Tissue Bmax (pmol/nmol) [6]: 4316 pmol/nmol
- Control Tissue Bmax (pmol/nmol) [7]: 1081 pmol/nmol
- Kd [7]: 158 nM
